Laboratory results from US11214540B2, “Compositions for treating neurodegenerative diseases” (COGNITION THERAPEUTICS, INC., priority 2017, dated 2022).
pIC50: −log10 of the molar value.

Tests used:
[1] = target: potassium channel hERG (Homo sapiens (Human), UniProt Q12809); assay: In vitro testing for hERG inhibition; type: biochemical; conditions: in vitro toxicity potassium channel hERG
Description: In vitro testing for hERG inhibition was performed in a standard assay (See: Haverkamp W, Breithardt G, Carnm A J, Janse M J, Rosen M R, Antzelevitch C, Escande D, Franz M, Malik M, Moss A and Shah R. (2000) Eur Heat J 21 (15); 1216-31).

[2] = log P; type: physicochemical
Method in brief: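 Ratio of un-ionized compound concentrations between octanol and water, with aqueous pH set so the un-ionized form predominates. Value given as the log of the octanol/water ratio.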

Sequence of potassium channel hERG (Q12809 whole entry): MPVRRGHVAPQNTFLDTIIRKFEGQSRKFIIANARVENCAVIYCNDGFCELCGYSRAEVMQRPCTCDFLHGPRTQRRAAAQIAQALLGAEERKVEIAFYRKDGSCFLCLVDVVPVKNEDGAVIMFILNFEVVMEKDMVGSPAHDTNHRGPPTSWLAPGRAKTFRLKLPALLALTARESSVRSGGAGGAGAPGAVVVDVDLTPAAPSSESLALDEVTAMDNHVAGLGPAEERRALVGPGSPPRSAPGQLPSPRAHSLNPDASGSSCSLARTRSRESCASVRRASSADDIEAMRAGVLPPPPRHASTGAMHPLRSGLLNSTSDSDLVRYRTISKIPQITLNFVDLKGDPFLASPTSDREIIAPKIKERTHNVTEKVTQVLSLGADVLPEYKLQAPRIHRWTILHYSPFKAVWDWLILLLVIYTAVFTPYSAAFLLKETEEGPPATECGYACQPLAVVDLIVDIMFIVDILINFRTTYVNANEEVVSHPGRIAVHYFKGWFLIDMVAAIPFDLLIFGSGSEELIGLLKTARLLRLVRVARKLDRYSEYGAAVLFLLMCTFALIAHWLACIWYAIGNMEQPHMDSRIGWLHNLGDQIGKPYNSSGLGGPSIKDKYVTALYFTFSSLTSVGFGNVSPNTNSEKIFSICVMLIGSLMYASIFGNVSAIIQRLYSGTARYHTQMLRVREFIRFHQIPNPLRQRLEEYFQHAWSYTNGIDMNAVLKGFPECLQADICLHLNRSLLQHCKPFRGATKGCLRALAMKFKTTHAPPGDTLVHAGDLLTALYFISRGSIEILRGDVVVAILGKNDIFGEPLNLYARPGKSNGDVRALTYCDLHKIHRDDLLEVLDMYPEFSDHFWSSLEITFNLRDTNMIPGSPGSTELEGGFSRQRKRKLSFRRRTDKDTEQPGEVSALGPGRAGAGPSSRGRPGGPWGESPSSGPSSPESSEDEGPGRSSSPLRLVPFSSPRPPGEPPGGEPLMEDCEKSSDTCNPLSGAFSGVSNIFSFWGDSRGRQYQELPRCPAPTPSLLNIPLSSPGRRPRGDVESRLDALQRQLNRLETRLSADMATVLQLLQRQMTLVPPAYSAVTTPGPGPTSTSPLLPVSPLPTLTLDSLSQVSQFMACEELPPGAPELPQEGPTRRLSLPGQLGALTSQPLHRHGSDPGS

Row | log P [2] | Compound | pIC50 [1]
1 | 4.87 | CC(C)=CC(CC(C)(C)c1ccc(OC(C)C)cc1)N1CCC(C)(O)CC1 (stereo not shown) [Compound 180] | 4.70
2 | 5.95 | CC(C)=CC(CC(C)(C)c1ccc(Cl)cc1)N1CCC(CCOC2CCOC2)CC1 (stereo not shown) [Compound 181] | 5.74
3 | 6.79 | COCCCC1CCN(C(C=C(C)C)CC(C)(C)c2ccc(OC(C)(C)C)cc2)CC1 (stereo not shown) [Compound 183] | 5.68
4 | 4 | CC(C)=CC(COc1ccc(Cl)cc1)N1CCC(CCO)CC1 (stereo not shown) [Compound 188] | 6.40
5 | 6.28 | CC(C)=CC(CC(C)(C)c1ccc(C(F)(F)F)cc1)N1CCN(C(=O)OC(C)(C)C)CC1 (stereo not shown) [Compound 200] | 4.08
6 | 4.05 | COCCC1(O)CCN(C(C=C(C)C)CC(C)(C)c2ccc(F)cc2)CC1 (stereo not shown) [Compound 218] | 4.89

The remaining lines, values behind:

Row | Compound | log P [2] | pIC50 [1]
7 | CC(C)=CC(CC(C)(C)c1ccc(F)cc1)N1CCC2(CC1)OCc1ccccc12 (stereo not shown) [Compound 185] | 6.16 | 5.52
8 | CC(C)=CC(CC(C)(C)c1ccc(Cl)cc1)N1CCC2(CC1)OCc1ccccc12 (stereo not shown) [Compound 187] | 6.62 | 6.00
9 | CC1(O)CCN(CCC(C)(C)c2ccc(Cl)cc2)CC1 [Compound 192] | 3.44 | 4.72
10 | CC(C)=CC(CC(C)(C)c1ccc(Cl)cc1)N1CCN(C(=O)OCC(C)C)CC1 (stereo not shown) [Compound 198] | 6.2 | 5.32
11 | COC1CCN(C(C)CC(C)(C)c2ccc(Cl)cc2)CC1 (stereo not shown) [Compound 199] | 4.22 | 5.92
12 | CC(C)=C[C@@H](CC(C)(C)c1ccc(Cl)cc1)N1CCC[C@@H]1CO [Compound 239] | 5.04 | 5.34
13 | CC(C)=C[C@H](CC(C)(C)c1ccc(F)cc1)N1CCC[C@@H]1CO [Compound 242] | 4.57 | 4.85
14 | COC[C@H]1CCCN1[C@@H](C)CC(C)(C)c1ccc(C(F)(F)F)cc1 [Compound 254] | 4.95 | 5.30
